In article PMC9774241, “Associating Biological Activity and Predicted Structure of Antimicrobial Peptides from Amphibians and Insects” (Antibiotics, 2022):
≈ marks a conversion by molar mass, not a printed value. Residues, ends and D or L forms follow the SMILES beside them. No end group written: not given here.

How the values were obtained:
Assay type in all cases: cell-based
Details in all cases: broth microdilution in MHB, peptide 128 down to 0.5 µg/mL, 20–24 h at 37 °C, no visible growth; range of three independent experiments
[1] = tested on: Staphylococcus aureus ATCC 29213
Method: (§1) Bacteria were grown overnight at 37 °C in Mueller-Hinton Broth (MHB; Sigma-Aldrich, St. Louis. MO, USA) in a shaking incubator and aliquoted into cryovials with a 50% glycerol solution in a 1:1 ratio. No additives were added to the MHB during the growth of bacterial isolates. Glycerol stocks were stored at −80 °C.
(§2) The antimicrobial activity of the putative AMPs was determined by a broth microdilution assay as described by the Clinical and Laboratory Standards Institute, with the published adaptations for testing of cationic peptides. Escherichia coli 25922 and Staphylococcus aureus 29213 isolates were purchased from the American Type Culture Collection (ATCC; Manassas, VA, USA). A human clinical isolate of Salmonella enterica serovar Enteritidis was provided by the BC Centre for Disease Control. Bacteria from stocks stored at −80 °C were streaked onto nonselective Columbia blood agar with 5% sheep blood (Oxoid) and incubated overnight at 37 °C. Next, 2–4 colonies were streaked onto a new agar plate to ensure uniform health of colonies used in the broth microdilution assay. Isolated colonies were suspended in MHB and the optical density was measured with a spectrophotometer to create an initial inoculum concentration of approximately 1 × 10^8 cfu/mL. The inoculum was diluted 1:250 to a final concentration of 2–8 × 10^5 cfu/mL, which was confirmed by performing a Total Viability Count (TVC). The TVC consisted of plating a 1:1000 dilution of the final inoculum on nonselective media and was also used to confirm the health and purity of the inoculum in each trial.
(§3) Lyophilized 80 µg peptide aliquots synthesized by GenScript (Piscataway, NJ, USA) were resuspended to 1.28 mg/mL with UltraPure water (Thermo Fisher Scientific, Waltham, MA, USA) and serially diluted in polypropylene 96-well microtiter plates (Greiner Bio-One #650261, Kremsmünster, Austria) from 128 down to 0.5 µg/mL. Two columns per plate were reserved for growth and sterility controls. Inoculum was added to the wells containing the peptide and the growth control. Plates were incubated for 20–24 h at 37 °C. The minimum inhibitory concentration (MIC) was determined as the lowest peptide concentration where there was no visible bacterial growth.

[2] = tested on: Salmonella enterica serovar Enteritidis (human clinical isolate)
Method: as §1, §2, §3

[3] = tested on: Escherichia coli ATCC 25922
Method: as §1, §2, §3

| Compound | MIC, S. aureus ATCC 29213 [1] [µg/mL] | MIC, Salmonella Enteritidis [2] [µg/mL] | MIC, E. coli ATCC 25922 [3] [µg/mL] |
| --- | --- | --- | --- |
| CC[C@H](C)[C@H](NC(=O)[C@H](CCCCN)NC(=O)[C@H](CC(=O)O)NC(=O)[C@H](CC(C)C)NC(=O)[C@@H](NC(=O)CNC(=O)[C@@H](NC(=O)[C@H](CO)NC(=O)[C@H](Cc1ccccc1)NC(=O)[C@H](CC(N)=O)NC(=O)[C@H](CCCCN)NC(=O)[C@@H](NC(=O)CNC(=O)[C@H](CCC(=O)O)NC(=O)[C@H](CCCCN)NC(=O)[C@@H](NC(=O)[C@@H](NC(=O)[C@@H](NC(=O)[C@H](Cc1c[nH]c2ccccc12)NC(=O)[C@H](CC(C)C)NC(=O)CN)[C@@H](C)O)[C@@H](C)O)[C@@H](C)CC)C(C)C)C(C)C)C(C)C)C(=O)N[C@@H](CCCNC(=N)N)C(=O)N[C@@H](CS)C(=O)N[C@@H](CCCCN)C(=O)N[C@H](C(=O)N[C@H](C(=O)NCC(=O)NCC(=O)N[C@@H](CS)C(=O)O)[C@@H](C)O)[C@@H](C)CC [PeNi14] (H-GLWTTIKEGVKNFSVGVLDKIRCKITGGC-OH; N-terminus and C-terminus assumed) | 16 to 32 | 32 (≈ 10.2 µM) | 4 to 8 |
| FIKTQVLKHLVAGVRVARGLDWKWR [CaCa2] | 64 to 128 | > 128 | 8 |
| FILHAKKTRSAK [VeSi1] | > 128 | > 128 | > 128 |
| CC[C@H](C)[C@H](NC(=O)CN)C(=O)N[C@@H](CC(C)C)C(=O)N[C@@H](CO)C(=O)NCC(=O)N[C@@H](CC(C)C)C(=O)N[C@@H](CC(C)C)C(=O)NCC(=O)N[C@@H](C)C(=O)NCC(=O)N[C@@H](CCCCN)C(=O)N[C@@H](CCCCN)C(=O)N[C@H](C(=O)N[C@H](C(=O)N[C@@H](CS)C(=O)NCC(=O)N[C@@H](CC(C)C)C(=O)N[C@@H](CO)C(=O)NCC(=O)N[C@@H](CC(C)C)C(=O)N[C@@H](CS)C(=O)O)C(C)C)[C@@H](C)CC [OdMa5] (H-GILSGLLGAGKKIVCGLSGLC-OH; N-terminus and C-terminus assumed) | 8 to 16 | 64 to 128 | 8 to 16 |
| CC(C)C[C@H](NC(=O)CNC(=O)[C@H](CO)NC(=O)[C@H](CC(C)C)NC(=O)CNC(=O)[C@H](CS)NC(=O)[C@H](CC(C)C)NC(=O)[C@@H](NC(=O)[C@H](CCCCN)NC(=O)[C@H](CCCCN)NC(=O)CNC(=O)[C@@H](NC(=O)CNC(=O)[C@H](CC(C)C)NC(=O)[C@@H](NC(=O)CNC(=O)[C@H](CO)NC(=O)[C@H](CC(C)C)NC(=O)[C@H](CC(C)C)NC(=O)CN)C(C)C)C(C)C)C(C)C)C(=O)N[C@@H](CS)C(=O)O [OdMa7] (H-GLLSGVLGVGKKVLCGLSGLC-OH; N-terminus and C-terminus assumed) | 16 to 32 | 128 (≈ 64.9 µM) | 8 to 16 |
| CC[C@H](C)[C@H](NC(=O)[C@@H](N)C(C)C)C(=O)N1CCC[C@H]1C(=O)N[C@@H](Cc1ccccc1)C(=O)N[C@H](C(=O)N[C@@H](C)C(=O)N[C@@H](CO)C(=O)N[C@H](C(=O)N[C@@H](C)C(=O)N[C@@H](C)C(=O)N[C@@H](CCC(=O)O)C(=O)N[C@@H](CCSC)C(=O)N[C@@H](CCSC)C(=O)N[C@@H](Cc1c[nH]cn1)C(=O)N[C@@H](Cc1c[nH]cn1)C(=O)N[C@H](C(=O)N[C@@H](Cc1ccc(O)cc1)C(=O)N[C@@H](CS)C(=O)N[C@@H](C)C(=O)N[C@@H](C)C(=O)N[C@@H](CO)C(=O)N[C@@H](CCCCN)C(=O)N[C@@H](CCCNC(=N)N)C(=O)N[C@@H](CS)C(=O)N[C@@H](CCCCN)C(=O)N[C@@H](CC(N)=O)C(=O)O)C(C)C)C(C)C)C(C)C [PeNi7] (H-VIPFVASVAAEMMHHVYCAASKRCKN-OH; N-terminus and C-terminus assumed) | > 128 | > 128 | 128 (≈ 44.7 µM) |
| GAHKEVFKRDTALTKEAAKKAKK [ApMe2] | > 128 | > 128 | > 128 |
| VKCRVRR [ApMe1] | > 128 | > 128 | > 128 |
| GIFSLIKGAAKVVAKGLGK [RaOm3] | 64 | 32 to 64 | 8 to 16 |
| CC[C@H](C)[C@H](NC(=O)CN)C(=O)N[C@@H](CC(C)C)C(=O)N[C@@H](CC(C)C)C(=O)N[C@@H](CC(N)=O)C(=O)N[C@H](C(=O)N[C@@H](CC(C)C)C(=O)N[C@@H](CCCCN)C(=O)NCC(=O)N[C@@H](C)C(=O)N[C@@H](C)C(=O)N[C@@H](CCCCN)C(=O)N[C@@H](CC(N)=O)C(=O)N[C@H](C(=O)N[C@@H](C)C(=O)NCC(=O)N[C@H](C(=O)N[C@@H](CC(C)C)C(=O)N[C@@H](CC(C)C)C(=O)N[C@@H](CC(=O)O)C(=O)N[C@@H](CCCCN)C(=O)N[C@@H](CC(C)C)C(=O)N[C@@H](CCCCN)C(=O)N[C@@H](CS)C(=O)N[C@@H](CCCCN)C(=O)N[C@H](C(=O)N[C@H](C(=O)NCC(=O)NCC(=O)N[C@@H](CS)C(=O)O)[C@@H](C)O)[C@@H](C)CC)C(C)C)C(C)C)[C@@H](C)O [PeNi8] (H-GILLNTLKGAAKNVAGVLLDKLKCKITGGC-OH; N-terminus and C-terminus assumed) | 4 to 8 | 64 (≈ 21.2 µM) | 8 (≈ 2.66 µM) |
| RRAIFASIRGYLGLRKR [MyGu1] | 128 | 8 to 16 | 4 |
| CC[C@H](C)[C@H](NC(=O)[C@H](CCCCN)NC(=O)[C@H](CCCCN)NC(=O)CNC(=O)[C@@H](NC(=O)CNC(=O)[C@H](CC(C)C)NC(=O)[C@@H](NC(=O)CNC(=O)[C@H](CO)NC(=O)[C@H](CC(C)C)NC(=O)[C@H](CC(C)C)NC(=O)CN)C(C)C)C(C)C)C(=O)N[C@H](C(=O)N[C@@H](CS)C(=O)NCC(=O)N[C@@H](CC(C)C)C(=O)N[C@@H](CO)C(=O)NCC(=O)N[C@@H](CC(C)C)C(=O)N[C@@H](CS)C(=O)O)C(C)C [OdMa6] (H-GLLSGVLGVGKKIVCGLSGLC-OH; N-terminus and C-terminus assumed) | 16 to 32 | 128 (≈ 64.9 µM) | 8 to 16 |
| CC[C@H](C)[C@H](NC(=O)[C@H](CO)NC(=O)[C@@H]1CCCN1C(=O)[C@H](CC(C)C)NC(=O)[C@@H](NC(=O)[C@H](CCCCN)NC(=O)[C@H](C)NC(=O)[C@H](C)NC(=O)[C@H](CC(C)C)NC(=O)CNC(=O)[C@H](C)NC(=O)[C@@H](NC(=O)[C@@H](NC(=O)[C@@H]1CCCN1C(=O)[C@H](CC(C)C)NC(=O)[C@@H](N)Cc1ccccc1)C(C)C)C(C)C)C(C)C)C(=O)N[C@H](C(=O)N[C@@H](CS)C(=O)N[C@@H](C)C(=O)N[C@H](C(=O)N[C@H](C(=O)N[C@@H](CCCCN)C(=O)N[C@@H](CCCCN)C(=O)N[C@@H](CS)C(=O)O)[C@@H](C)O)C(C)C)[C@@H](C)CC [RaCa15] (H-FLPVVAGLAAKVLPSIICAVTKKC-OH; N-terminus and C-terminus assumed) | 4 to 8 | > 128 | 8 to 16 |
| CC[C@H](C)[C@H](NC(=O)[C@H](CCCCN)NC(=O)[C@H](CS)NC(=O)[C@H](Cc1ccccc1)NC(=O)[C@H](CCCCN)NC(=O)[C@H](CCCNC(=N)N)NC(=O)[C@H](CO)NC(=O)[C@H](Cc1ccc(O)cc1)NC(=O)CNC(=O)[C@H](CS)NC(=O)[C@@H]1CCCN1C(=O)[C@H](C)NC(=O)[C@@H](NC(=O)[C@H](C)NC(=O)[C@H](Cc1ccccc1)NC(=O)[C@H](Cc1ccccc1)NC(=O)[C@H](Cc1ccccc1)NC(=O)[C@H](CCCNC(=N)N)NC(=O)[C@@H](N)CCCNC(=N)N)[C@@H](C)O)C(=O)N[C@H](C(=O)N[C@@H](CCCNC(=N)N)C(=O)N[C@@H](CCCNC(=N)N)C(=O)N[C@@H](CCCCN)C(=O)N[C@@H](CCCNC(=N)N)C(=O)O)[C@@H](C)O [CaCa4] (H-RRFFFATAPCGYSRKFCKITRRKR-OH) | > 128 | 32 to 64 | 16 to 32 |
| CC[C@H](C)[C@H](NC(=O)[C@H](CCCCN)NC(=O)CNC(=O)[C@H](CC(C)C)NC(=O)[C@H](CC(C)C)NC(=O)CN)C(=O)N[C@@H](CC(C)C)C(=O)NCC(=O)N[C@H](C(=O)NCC(=O)N[C@@H](CCCCN)C(=O)N[C@@H](CCCCN)C(=O)N[C@H](C(=O)N[C@@H](CC(C)C)C(=O)N[C@@H](CS)C(=O)NCC(=O)N[C@H](C(=O)N[C@@H](CO)C(=O)NCC(=O)N[C@@H](CC(C)C)C(=O)N[C@@H](CS)C(=O)O)C(C)C)C(C)C)C(C)C [PeNi9] (H-GLLGKILGVGKKVLCGVSGLC-OH) | 4 to 8 | 8 to 16 | 2 to 4 |
